Series [1] in a line: Therapeutic index, ratio of CC50 for human CEM-SS cells to IC50 for HIV1 LAI infected in human CEM-SS cells. The note with it: CEM-SS cells (uninfected and infected with HIV1 LAI), read-out: Ratio CC50/IC50. It is filed as cell-based.
Series [2] in a line: Cytotoxicity against human CEM-SS cells after 5 days by MTT assay. In kind it is cell-based.
For series [3], the system named is Human immunodeficiency virus 1. Description: Antiviral activity against HIV1 LAI infected in human CEM-SS cells assessed as inhibition of viral replication after 5 days by MTT assay. Particulars: Human immunodeficiency virus 1, LAI, 120 h. In kind it is functional, organism-based. (In general: Tetrazolium dyes change colour on reduction, which living cells bring about.)

Here are results for eight compounds from ChEMBL document CHEMBL1177694, “Multivalent catanionic GalCer analogs derived from first generation dendrimeric phosphonic acids” (Bioorg Med Chem, 2010).

Usually CC50 stands for the concentration that lowers cell viability or growth by half. Lower therefore signals harm at low concentration. A word on the IC50: it is the concentration that gives 50% inhibition. Take `CCCCCCCCCCC(C(=O)NCCc1ccc(OP(=S)(Oc2ccc(CCNC(=O)C(CCCCCCCCCC)P(=O)(O)O)cc2)N(C)/N=C/c2ccc(OP3(Oc4ccc(/C=N/N(C)P(=S)(Oc5ccc(CCNC(=O)C(CCCCCCCCCC)P(=O)(O)O)cc5)Oc5ccc(CCNC(=O)C(CCCCCCCCCC)P(=O)(O)O)cc5)cc4)=NP(Oc4ccc(/C=N/N(C)P(=S)(Oc5ccc(CCNC(=O)C(CCCCCCCCCC)P(=O)(O)O)cc5)Oc5ccc(CCNC(=O)C(CCCCCCCCCC)P(=O)(O)O)cc5)cc4)(Oc4ccc(/C=N/N(C)P(=S)(Oc5ccc(CCNC(=O)C(CCCCCCCCCC)P(=O)(O)O)cc5)Oc5ccc(CCNC(=O)C(CCCCCCCCCC)P(=O)(O)O)cc5)cc4)=NP(Oc4ccc(/C=N/N(C)P(=S)(Oc5ccc(CCNC(=O)C(CCCCCCCCCC)P(=O)(O)O)cc5)Oc5ccc(CCNC(=O)C(CCCCCCCCCC)P(=O)(O)O)cc5)cc4)(Oc4ccc(/C=N/N(C)P(=S)(Oc5ccc(CCNC(=O)C(CCCCCCCCCC)P(=O)(O)O)cc5)Oc5ccc(CCNC(=O)C(CCCCCCCCCC)P(=O)(O)O)cc5)cc4)=N3)cc2)cc1)P(=O)(O)O` (centres undefined): in series [1], the selectivity ratio was more than 6. The same compound displayed a CC50 at 120 h in series [2] of more than 100 µM. In series [3], the IC50 was 16 µM.

With `CN(/N=C/c1ccc(OP2(Oc3ccc(/C=N/N(C)P(=S)(Oc4ccc(C(O)P(=O)(O)O)cc4)Oc4ccc(C(O)P(=O)(O)O)cc4)cc3)=NP(Oc3ccc(/C=N/N(C)P(=S)(Oc4ccc(C(O)P(=O)(O)O)cc4)Oc4ccc(C(O)P(=O)(O)O)cc4)cc3)(Oc3ccc(/C=N/N(C)P(=S)(Oc4ccc(C(O)P(=O)(O)O)cc4)Oc4ccc(C(O)P(=O)(O)O)cc4)cc3)=NP(Oc3ccc(/C=N/N(C)P(=S)(Oc4ccc(C(O)P(=O)(O)O)cc4)Oc4ccc(C(O)P(=O)(O)O)cc4)cc3)(Oc3ccc(/C=N/N(C)P(=S)(Oc4ccc(C(O)P(=O)(O)O)cc4)Oc4ccc(C(O)P(=O)(O)O)cc4)cc3)=N2)cc1)P(=S)(Oc1ccc(C(O)P(=O)(O)O)cc1)Oc1ccc(C(O)P(=O)(O)O)cc1` (centres undefined), in series [1], the selectivity ratio is more than 2. Moreover, the CC50 at 120 h in series [2] was more than 100 µM. The IC50 in series [3] came to 50 µM.

For the compound `CCCCCCCCCCCCCCCCNOC(CO)C(O)C(OC1OC(CO)C(O)C(O)C1O)C(O)CO.CCCCCCCCCCCCCCCCNOC(CO)C(O)C(OC1OC(CO)C(O)C(O)C1O)C(O)CO.CCCCCCCCCCCCCCCCNOC(CO)C(O)C(OC1OC(CO)C(O)C(O)C1O)C(O)CO.CCCCCCCCCCCCCCCCNOC(CO)C(O)C(OC1OC(CO)C(O)C(O)C1O)C(O)CO.CCCCCCCCCCCCCCCCNOC(CO)C(O)C(OC1OC(CO)C(O)C(O)C1O)C(O)CO.CCCCCCCCCCCCCCCCNOC(CO)C(O)C(OC1OC(CO)C(O)C(O)C1O)C(O)CO.CN(/N=C/c1ccc(OP2(Oc3ccc(/C=N/N(C)P(=S)(Oc4ccc(/C=C/P(=O)(O)O)cc4)Oc4ccc(/C=C/P(=O)(O)O)cc4)cc3)=NP(Oc3ccc(/C=N/N(C)P(=S)(Oc4ccc(/C=C/P(=O)(O)O)cc4)Oc4ccc(/C=C/P(=O)(O)O)cc4)cc3)(Oc3ccc(/C=N/N(C)P(=S)(Oc4ccc(/C=C/P(=O)(O)O)cc4)Oc4ccc(/C=C/P(=O)(O)O)cc4)cc3)=NP(Oc3ccc(/C=N/N(C)P(=S)(Oc4ccc(/C=C/P(=O)(O)O)cc4)Oc4ccc(/C=C/P(=O)(O)O)cc4)cc3)(Oc3ccc(/C=N/N(C)P(=S)(Oc4ccc(/C=C/P(=O)(O)O)cc4)Oc4ccc(/C=C/P(=O)(O)O)cc4)cc3)=N2)cc1)P(=S)(Oc1ccc(/C=C\P(=O)(O)O)cc1)Oc1ccc(/C=C/P(=O)(O)O)cc1` (centres undefined), the selectivity ratio in series [1] was 6.4. Moreover, the CC50 at 120 h in series [2] worked out at 1.6 µM. Besides, the half-maximal inhibitory concentration (IC50) in series [3] worked out at 0.25 µM.

Consider `CN(/N=C/c1ccc(OP2(Oc3ccc(/C=N/N(c4ccc(CCN(CP(=O)(O)O)CP(=O)(O)O)cc4)P(O)(=S)Oc4ccc(CCN(CP(=O)(O)O)CP(=O)(O)O)cc4)cc3)=NP(Oc3ccc(/C=N/N(C)P(=S)(Oc4ccc(CCN(CP(=O)(O)O)CP(=O)(O)O)cc4)Oc4ccc(CCN(CP(=O)(O)O)CP(=O)(O)O)cc4)cc3)(Oc3ccc(/C=N/N(C)P(=S)(Oc4ccc(CCN(CP(=O)(O)O)CP(=O)(O)O)cc4)Oc4cccc(CCN(CP(=O)(O)O)CP(=O)(O)O)c4)cc3)=NP(Oc3ccc(/C=N/N(C)P(=S)(Oc4ccc(CCN(CP(=O)(O)O)CP(=O)(O)O)cc4)Oc4ccc(CCN(CP(=O)(O)O)CP(=O)(O)O)cc4)cc3)(Oc3ccc(/C=N/N(C)P(=S)(Oc4ccc(CCN(CP(=O)(O)O)CP(=O)(O)O)cc4)Oc4ccc(CCN(CP(=O)(O)O)CP(=O)(O)O)cc4)cc3)=N2)cc1)P(=S)(Oc1ccc(CCN(CP(=O)(O)O)CP(=O)(O)O)cc1)Oc1ccc(CCN(CP(=O)(O)O)CP(=O)(O)O)cc1` (centres undefined), for which the selectivity ratio in series [1] was more than 5. This compound returned a CC50 at 120 h in series [2] of more than 100 µM. In addition, the IC50 in series [3] was found to be 20 µM.

For the compound `CCCCCCCCCCCCCCCCNOC(CO)C(O)C(OC1OC(CO)C(O)C(O)C1O)C(O)CO.CCCCCCCCCCCCCCCCNOC(CO)C(O)C(OC1OC(CO)C(O)C(O)C1O)C(O)CO.CCCCCCCCCCCCCCCCNOC(CO)C(O)C(OC1OC(CO)C(O)C(O)C1O)C(O)CO.CCCCCCCCCCCCCCCCNOC(CO)C(O)C(OC1OC(CO)C(O)C(O)C1O)C(O)CO.CCCCCCCCCCCCCCCCNOC(CO)C(O)C(OC1OC(CO)C(O)C(O)C1O)C(O)CO.CCCCCCCCCCCCCCCCNOC(CO)C(O)C(OC1OC(CO)C(O)C(O)C1O)C(O)CO.CN(/N=C/c1ccc(OP2(Oc3ccc(/C=N/N(C)P(=S)(Oc4ccc(C(O)P(=O)(O)O)cc4)Oc4ccc(C(O)P(=O)(O)O)cc4)cc3)=NP(Oc3ccc(/C=N/N(C)P(=S)(Oc4ccc(C(O)P(=O)(O)O)cc4)Oc4ccc(C(O)P(=O)(O)O)cc4)cc3)(Oc3ccc(/C=N/N(C)P(=S)(Oc4ccc(C(O)P(=O)(O)O)cc4)Oc4ccc(C(O)P(=O)(O)O)cc4)cc3)=NP(Oc3ccc(/C=N/N(C)P(=S)(Oc4ccc(C(O)P(=O)(O)O)cc4)Oc4ccc(C(O)P(=O)(O)O)cc4)cc3)(Oc3ccc(/C=N/N(C)P(=S)(Oc4ccc(C(O)P(=O)(O)O)cc4)Oc4ccc(C(O)P(=O)(O)O)cc4)cc3)=N2)cc1)P(=S)(Oc1ccc(C(O)P(=O)(O)O)cc1)Oc1ccc(C(O)P(=O)(O)O)cc1` (centres undefined), the selectivity ratio in series [1] stood at 4. For the same compound, in series [2], the CC50 at 120 h worked out at 1.2 µM. Besides, the half-inhibitory concentration (IC50) in series [3] is 0.21 µM.

`CCCC(C(=O)NCCc1ccc(OP(=S)(Oc2ccc(CCNC(=O)C(CCC)P(=O)(O)O)cc2)N(C)/N=C/c2ccc(OP3(Oc4ccc(/C=N/N(C)P(=S)(Oc5ccc(CCNC(=O)C(CCC)P(=O)(O)O)cc5)Oc5ccc(CCNC(=O)C(CCC)P(=O)(O)O)cc5)cc4)=NP(Oc4ccc(/C=N/N(C)P(=S)(Oc5ccc(CCNC(=O)C(CCC)P(=O)(O)O)cc5)Oc5ccc(CCNC(=O)C(CCC)P(=O)(O)O)cc5)cc4)(Oc4ccc(/C=N/N(C)P(=S)(Oc5ccc(CCNC(=O)C(CCC)P(=O)(O)O)cc5)Oc5ccc(CCNC(=O)C(CCC)P(=O)(O)O)cc5)cc4)=NP(Oc4ccc(/C=N/N(C)P(=S)(Oc5ccc(CCNC(=O)C(CCC)P(=O)(O)O)cc5)Oc5ccc(CCNC(=O)C(CCC)P(=O)(O)O)cc5)cc4)(Oc4ccc(/C=N/N(C)P(=S)(Oc5ccc(CCNC(=O)C(CCC)P(=O)(O)O)cc5)Oc5ccc(CCNC(=O)C(CCC)P(=O)(O)O)cc5)cc4)=N3)cc2)cc1)P(=O)(O)O.CCCCCCCCCCCCCCCCNOC(CO)C(O)C(OC1OC(CO)C(O)C(O)C1O)C(O)CO.CCCCCCCCCCCCCCCCNOC(CO)C(O)C(OC1OC(CO)C(O)C(O)C1O)C(O)CO.CCCCCCCCCCCCCCCCNOC(CO)C(O)C(OC1OC(CO)C(O)C(O)C1O)C(O)CO.CCCCCCCCCCCCCCCCNOC(CO)C(O)C(OC1OC(CO)C(O)C(O)C1O)C(O)CO.CCCCCCCCCCCCCCCCNOC(CO)C(O)C(OC1OC(CO)C(O)C(O)C1O)C(O)CO.CCCCCCCCCCCCCCCCNOC(CO)C(O)C(OC1OC(CO)C(O)C(O)C1O)C(O)CO` (centres undefined): in series [1], the selectivity ratio was determined as 4.5. Also, the half-maximal cytotoxic concentration (CC50) at 120 h in series [2] turned out to be 1.5 µM. In series [3], the IC50 turned out to be 0.33 µM.

As to `CN(/N=C/c1ccc(OP2(Oc3ccc(/C=N/N(C)P(=S)(Oc4ccc(CCNC(=O)CP(=O)(O)O)cc4)Oc4ccc(CCNC(=O)CP(=O)(O)O)cc4)cc3)=NP(Oc3ccc(/C=N/N(C)P(=S)(Oc4ccc(CCNC(=O)CP(=O)(O)O)cc4)Oc4ccc(CCNC(=O)CP(=O)(O)O)cc4)cc3)(Oc3ccc(/C=N/N(C)P(=S)(Oc4ccc(CCNC(=O)CP(=O)(O)O)cc4)Oc4ccc(CCNC(=O)CP(=O)(O)O)cc4)cc3)=NP(Oc3ccc(/C=N/N(C)P(=S)(Oc4ccc(CCNC(=O)CP(=O)(O)O)cc4)Oc4ccc(CCNC(=O)CP(=O)(O)O)cc4)cc3)(Oc3ccc(/C=N/N(C)P(=S)(Oc4ccc(CCNC(=O)CP(=O)(O)O)cc4)Oc4ccc(CCNC(=O)CP(=O)(O)O)cc4)cc3)=N2)cc1)P(=S)(Oc1ccc(CCNC(=O)CP(=O)(O)O)cc1)Oc1ccc(CCNC(=O)CP(=O)(O)O)cc1`, the selectivity ratio in series [1] was more than 4. This compound also showed a CC50 at 120 h in series [2] of more than 100 µM. For the same compound, the IC50 in series [3] is 25 µM.

In the case of `CCCCCCCCCC(C(=O)NCCc1ccc(OP(=S)(Oc2ccc(CCNC(=O)C(CCCCCCCCC)P(=O)(O)O)cc2)N(C)/N=C/c2ccc(OP3(Oc4ccc(/C=N/N(C)P(=S)(Oc5ccc(CCNC(=O)C(CCCCCCCCC)P(=O)(O)O)cc5)Oc5ccc(CCNC(=O)C(CCCCCCCCC)P(=O)(O)O)cc5)cc4)=NP(Oc4ccc(/C=N/N(C)P(=S)(Oc5ccc(CCNC(=O)C(CCCCCCCCC)P(=O)(O)O)cc5)Oc5ccc(CCNC(=O)C(CCCCCCCCC)P(=O)(O)O)cc5)cc4)(Oc4ccc(/C=N/N(C)P(=S)(Oc5ccc(CCNC(=O)C(CCCCCCCCC)P(=O)(O)O)cc5)Oc5ccc(CCNC(=O)C(CCCCCCCCC)P(=O)(O)O)cc5)cc4)=NP(Oc4ccc(/C=N/N(C)P(=S)(Oc5ccc(CCNC(=O)C(CCCCCCCCC)P(=O)(O)O)cc5)Oc5ccc(CCNC(=O)C(CCCCCCCCC)P(=O)(O)O)cc5)cc4)(Oc4ccc(/C=N/N(C)P(=S)(Oc5ccc(CCNC(=O)C(CCCCCCCCC)P(=O)(O)O)cc5)Oc5ccc(CCNC(=O)C(CCCCCCCCC)P(=O)(O)O)cc5)cc4)=N3)cc2)cc1)P(=O)(O)O.CCCCCCCCCCCCCCCCNOC(CO)C(O)C(OC1OC(CO)C(O)C(O)C1O)C(O)CO.CCCCCCCCCCCCCCCCNOC(CO)C(O)C(OC1OC(CO)C(O)C(O)C1O)C(O)CO.CCCCCCCCCCCCCCCCNOC(CO)C(O)C(OC1OC(CO)C(O)C(O)C1O)C(O)CO.CCCCCCCCCCCCCCCCNOC(CO)C(O)C(OC1OC(CO)C(O)C(O)C1O)C(O)CO.CCCCCCCCCCCCCCCCNOC(CO)C(O)C(OC1OC(CO)C(O)C(O)C1O)C(O)CO.CCCCCCCCCCCCCCCCNOC(CO)C(O)C(OC1OC(CO)C(O)C(O)C1O)C(O)CO` (centres undefined), the selectivity ratio in series [1] came out at 19.7. In addition, the CC50 at 120 h in series [2] was 6.1 µM. In series [3], the IC50 was determined as 0.31 µM.
